Test results taken from US8030004B2, “Cell free screening assay and methods of use” (Oregon Health & Science University, priority 2005, dated 2011).
Entries after “also recorded” stand apart in the source; their conditions may differ.

What was measured:
Assay type in all cases: biochemical
DNA replication = DNA replication assay of sperm chromatin in S-phase Xenopus egg extracts
Description: Following replication (60 minutes), chromatin was re-isolated and the same blot was assayed in series for the presence of the xFA proteins indicated. A non-specific band is indicated (asterisk) as a loading control. […] A replication assay was performed to monitor incorporation of α-^32P-GTP during one round of replication in extracts treated as indicated. Total amounts of replication products at 60 minutes following addition of sperm chromatin to non-treated or treated extracts were analyzed by agarose gel electrophoresis and exposure to X-ray film. Band density percentages were determined using a BioRad Molecular PhosphorImager Fx (Kodak screens, Quantity-1 software). […] 1000 sperm pronuclei/ul were added to replicating extracts containing different concentrations of MMC (lanes 3-9). Extracts were otherwise untreated or contained caffeine (lanes 6+7) or a neutralizing anti-xATR antibody (lanes 8+9). MMC-concentrations: 150 μM (lanes 3, 6, 8), 50 μM (lanes 4, 7, 9), or 5 μM (lane 5). […] Sperm chromatin was added to S-phase egg extracts. Xenopus egg extracts were either untreated (−) or aphidicolin was added (+) at the indicated time points following addition of sperm DNA: 0 minutes, pre-nuclear membrane formation; 30 minutes, beginning of replication; 60 minutes, mid-replication; 90 minutes late/post-replication; and 120 minutes, post replication. All chromatin fractions were re-isolated at 135 minutes following addition of sperm DNA, analyzed by SDS-PAGE and immunoblotted as indicated. […] Xenopus egg extracts were treated with beads coupled to preimmune serum (lanes 2, 3, and 5) or beads coupled to anti-xATRIP serum (lanes 1, 4, and 6). Sperm chromatin was added to preimmune or xATRIP depleted extracts and allowed to replicate. Xenopus egg extracts were either untreated or supplemented with aphidicolin (added at 50 minutes following addition of sperm DNA). Chromatin fractions were re-isolated at 70 minutes and assayed for the presence of xFANCD2, xFANCA, xATRIP and xORC-2 by immunoblotting. […] Xenopus egg extracts were treated with beads coupled to preimmune serum (lanes 1 and 3) or beads coupled to anti-xFANCA serum (lanes 2 and 4). Sperm chromatin was added to preimmune or xFANCA depleted extracts and allowed to replicate. Xenopus egg extracts were either untreated or supplemented with aphidicolin (added at 50 minutes following addition of sperm DNA). Chromatin fractions were re-isolated at 70 minutes and assayed for the presence of xFANCA, xATRIP and xORC-2 by immunoblotting.
Preparation of Xenopus egg extracts: Extracts were prepared from Xenopus eggs according to the method of Murray (Murray, Methods Cell Biol. 36:581-605, 1991). In brief, eggs were de-jellied in 2% cysteine, pH 7.8, washed three times in XB buffer (10 mM KCl, 1 mM MgCl2, […] CaCl2, 10 mM HEPES, 5 mM ethylene glycol tetraacetic acid (EGTA), 1.75% w/v sucrose, pH 7.8) and washed three times in CSF-XB buffer (5 mM EGTA, 2 mM MgCl2). Eggs were crushed by low speed centrifugation (10,000 g, 10 minutes) and the cytoplasmic fraction was cleared by centrifugation (16,000 g, 20 minutes) after the addition of energy mix (15 mM creatine phosphate, 2 mM ATP, 2 mM MgCl2), cytochalasin B (10 μg/ml), cycloheximide (100 μg/ml), and PEFABLOC™ (4-(2-aminoethyl)benzenesulfonylfluoride) (100 μg/ml). In some of the examples described herein, the extracts were released from M to S phase by the addition of CaCl2 to a final concentration of 0.4 mM. In some examples, the released extracts were incubated for 20 minutes at 23° C. Where indicated, mitomycin C (5-150 μM) and caffeine (4 mM), Tautomycin (3 uM), etoposide (30 or 60 uM), and ICRF-193 (150 and 300 uM) were added to S-phase extracts immediately prior to the addition of DNA substrates or sperm chromatin and incubated for the time indicated; aphidicolin (50 ng/1 μl), was added at the time points indicated.

xFANCA, xFANCF, xFANCD2 = experiment: Chromatin binding of xFA proteins in replicating S-phase Xenopus egg extracts with sperm chromatin; conditions: for chromatin binding of xFA proteins (xFANCA, xFANCF, xFANCD2): replicating S-phase extracts with sperm chromatin
Description: Following replication (60 minutes), chromatin was re-isolated and the same blot was assayed in series for the presence of the xFA proteins indicated. A non-specific band is indicated (asterisk) as a loading control. […] A replication assay was performed to monitor incorporation of α-^32P-GTP during one round of replication in extracts treated as indicated. Total amounts of replication products at 60 minutes following addition of sperm chromatin to non-treated or treated extracts were analyzed by agarose gel electrophoresis and exposure to X-ray film. Band density percentages were determined using a BioRad Molecular PhosphorImager Fx (Kodak screens, Quantity-1 software). […] 1000 sperm pronuclei/ul were added to replicating extracts containing different concentrations of MMC (lanes 3-9). Extracts were otherwise untreated or contained caffeine (lanes 6+7) or a neutralizing anti-xATR antibody (lanes 8+9). MMC-concentrations: 150 μM (lanes 3, 6, 8), 50 μM (lanes 4, 7, 9), or 5 μM (lane 5). […] Sperm chromatin was added to S-phase egg extracts. Xenopus egg extracts were either untreated (−) or aphidicolin was added (+) at the indicated time points following addition of sperm DNA: 0 minutes, pre-nuclear membrane formation; 30 minutes, beginning of replication; 60 minutes, mid-replication; 90 minutes late/post-replication; and 120 minutes, post replication. All chromatin fractions were re-isolated at 135 minutes following addition of sperm DNA, analyzed by SDS-PAGE and immunoblotted as indicated. […] Xenopus egg extracts were treated with beads coupled to preimmune serum (lanes 2, 3, and 5) or beads coupled to anti-xATRIP serum (lanes 1, 4, and 6). Sperm chromatin was added to preimmune or xATRIP depleted extracts and allowed to replicate. Xenopus egg extracts were either untreated or supplemented with aphidicolin (added at 50 minutes following addition of sperm DNA). Chromatin fractions were re-isolated at 70 minutes and assayed for the presence of xFANCD2, xFANCA, xATRIP and xORC-2 by immunoblotting. […]

xFANCM = experiment: Xenopus egg cell free extract: xFANCM mobility shift (phosphorylation) upon addition of DNA, immunoblot; conditions: natural product screen membranes reprobed with xFANCM antibody (FIG. 7B)
Description: 10 ul Xenopus egg extracts was combined with 0.5 ul compound (10 mM) or curcumin (control, 23 uM) then 0.5 ul plasmid DNA (pBluescript, 3.4 ug/ul) was added. The sample was incubated for 45 min at room temperature, then 60 ul of 1×SDS loading buffer. After incubation at 95° C. for 10 min, samples were resolved onto a NUPAGE™ 3-8% tris-acetate gradient gel (Invitrogen) and transferred onto a PVDF membrane (Immobilon P, Millipore).
Of the 235 compounds tested 7 (NP-A3, NP-A7, NP-D8, NP-E3, NP-F2, NP-F8, NP-H8) were positive for modulation of xFANCD2 activation (see FIG. 14). Membranes initially probed with xFANCD2 antibody were reprobed with xFANCM antibody. […] Thus xFANCM can be used as an indicator of Fanconi anemia pathway activation.

xFANCD2 = experiment: Induction of xFANCD2-L by circular plasmid dsDNA in Xenopus egg cell free extracts, immunoblot; conditions: for induction of xFANCD2-L in the presence of circular plasmid DNA: 200 ng/ul circular plasmid dsDNA, etoposide 30 or 60 uM, ICRF-193 150 or 300 uM
Description: FIG. 13A is a digital image of an immunoblot showing Xenopus egg cell free extracts that were incubated with 160 ng/ul circular plasmid dsDNA for 30 min in the presence or absence of the replication initiation inhibitor geminin. Efficiency of replication inhibition was measured by performing a parallel replication assay using an aliquot of the geminin-treated extract (smaller panel in figure FIG. 13A). FIG. 13B is a digital image of an immunoblot showing that non-activated, M-phase egg extracts or CaCl2-activated, S-phase egg extracts were incubated with 160 ng/ul circular plasmid dsDNA. Extract aliquots (1 ul) were taken at the indicated time points and analyzed for xFANCD2 and xMre11. […] FIG. 13C is a digital image of an immunoblot showing Xenopus egg cell free extracts that were incubated with 160 ng/ul circular plasmid dsDNA for 30 min in the presence or absence of the checkpoint kinase inhibitor caffeine. Where indicated, extracts were supplemented with the phosphatase inhibitor, tautomycin, to stabilize xMre11-PPP. Following incubation, 1 ul of extract was analyzed for xFANCD2 and xMre11 by immunoblot. DNA-free extract was used as a size control for xFANCD2-S and xMre11 (lane 1). FIG. 13D is a digital image of an immunoblot showing Xenopus egg cell free extracts that were incubated either with bead-coupled anti-xATRIP antibody or with bead-coupled pre-immune serum and incubated with 200 ng/ul circular plasmid dsDNA. Aliquots were taken at different time points and assayed for xFANCD2 by immunoblot. 1 ul of DNA-free extract was used as a size control for xFANCD2-S (lane 5). […] Xenopus egg cell free extracts containing 200 ng/ul of circular plasmid dsDNA were incubated with etoposide (30 uM, lane 2; 60 uM, lane 3) or ICRF-193 (150 uM, lane 4; 300 uM, lane 5). Xenopus egg cell free extracts containing 200 ng/ul of circular plasmid dsDNA but not topoisomerase IIα inhibitor were used as positive control and DNA-free extracts were used as negative control for induction of xFANCD2-L. […]

xMre11 = experiment: Induction of xMre11-PPP by plasmid DNA in Xenopus egg cell free extracts, immunoblot
Description: FIG. 13A is a digital image of an immunoblot showing Xenopus egg cell free extracts that were incubated with 160 ng/ul circular plasmid dsDNA for 30 min in the presence or absence of the replication initiation inhibitor geminin. Efficiency of replication inhibition was measured by performing a parallel replication assay using an aliquot of the geminin-treated extract (smaller panel in figure FIG. 13A). FIG. 13B is a digital image of an immunoblot showing that non-activated, M-phase egg extracts or CaCl2-activated, S-phase egg extracts were incubated with 160 ng/ul circular plasmid dsDNA. Extract aliquots (1 ul) were taken at the indicated time points and analyzed for xFANCD2 and xMre11. […] FIG. 13C is a digital image of an immunoblot showing Xenopus egg cell free extracts that were incubated with 160 ng/ul circular plasmid dsDNA for 30 min in the presence or absence of the checkpoint kinase inhibitor caffeine. Where indicated, extracts were supplemented with the phosphatase inhibitor, tautomycin, to stabilize xMre11-PPP. Following incubation, 1 ul of extract was analyzed for xFANCD2 and xMre11 by immunoblot. DNA-free extract was used as a size control for xFANCD2-S and xMre11 (lane 1). […]

[1] = high concentration of circular plasmid DNA (100 ng/ul), caffeine or geminin added

Compound: CO[C@@]12[C@H](COC(N)=O)C3=C(C(=O)C(C)=C(N)C3=O)N1C[C@@H]1N[C@@H]12 [MMC, mitomycin C]
- replication (incorporation of radiolabeled nucleotides into nascent DNA) (DNA replication; 60 minutes after addition of sperm chromatin (FIG. 3A top right)): reduced
- DNA replication (DNA replication; MMC 150 μM): significantly blocked
- DNA replication (DNA replication; lower MMC concentrations (50 μM, 5 μM)): less inhibited
- chromatin binding of xFA proteins (xFANCA, xFANCF, xFANCD2) (xFANCA, xFANCF, xFANCD2): increased

Compound: C[C@@]12C(=O)OC(=O)[C@]1(C)[C@H]1CC[C@@H]2O1 [NP-B11, cantharidin]
- shift corresponding to xFANCM phosphorylation upon addition of DNA (xFANCM): stimulates the post-translational modification of xFANCM or inhibits the dephosphorylation of xFANCM; also recorded: strongly stimulated

Compound: C[C@@]1(CO)[C@H](O)CC[C@@]2(C)[C@H]1CC[C@H]1C[C@@H]3C[C@@]12CC[C@]3(O)CO [aphidicolin]
- chromatin binding of xFA proteins (xFANCA, xFANCF, xFANCD2) (xFANCA, xFANCF, xFANCD2): increased chromatin association

Compound: Cn1c(=O)c2c(ncn2C)n(C)c1=O [caffeine]
- activation of xFANCD2-L by circular plasmid DNA (xFANCD2; [1]): not significantly affected
- rescue of MMC-blocked replication (DNA replication; MMC 150 μM plus caffeine): could not be rescued
- rescue of MMC-reduced replication (DNA replication; MMC-treated extracts plus caffeine (FIG. 3A top right)): rescued
- rescue of MMC-inhibited replication (DNA replication; lower MMC concentration (50 μM) plus caffeine): could be rescued
- MMC-induced recruitment of xFA proteins to chromatin (xFANCA, xFANCF, xFANCD2; MMC-treated replicating extracts plus caffeine): reversed
- induction of Mre11-PPP in response to dsDNA fragments (xMre11; dsDNA fragments generated by HaeIII-digest): inhibited
- induction of xMre11-PPP by circular plasmid DNA (xMre11; [1]): inhibited

Compound: COc1cc([C@@H]2c3cc4c(cc3[C@@H](O[C@@H]3O[C@@H]5CO[C@@H](C)O[C@H]5[C@H](O)[C@H]3O)[C@H]3COC(=O)[C@H]23)OCO4)cc(OC)c1O [etoposide]
- induction of xFANCD2-L in the presence of circular plasmid DNA (xFANCD2): significantly blocked

Compound: ICRF-193
- induction of xFANCD2-L in the presence of circular plasmid DNA (xFANCD2): significantly blocked
